The values below are quoted from earlier work in US20260033492A1, “Pest Repellents and Uses Thereof” (priority 2020, published 2026).

The conditions of data set [1]: in vivo.
Data set [2] deals with acetylcholinesterase (Homo sapiens, UniProt P22303). As to conditions: in humans.
The subject of data set [3] is insects. The settings on record: in vivo.
For data set [4], the system named is salamander larvae. The settings on record: in vivo.

Chain of acetylcholinesterase (P22303 32-614): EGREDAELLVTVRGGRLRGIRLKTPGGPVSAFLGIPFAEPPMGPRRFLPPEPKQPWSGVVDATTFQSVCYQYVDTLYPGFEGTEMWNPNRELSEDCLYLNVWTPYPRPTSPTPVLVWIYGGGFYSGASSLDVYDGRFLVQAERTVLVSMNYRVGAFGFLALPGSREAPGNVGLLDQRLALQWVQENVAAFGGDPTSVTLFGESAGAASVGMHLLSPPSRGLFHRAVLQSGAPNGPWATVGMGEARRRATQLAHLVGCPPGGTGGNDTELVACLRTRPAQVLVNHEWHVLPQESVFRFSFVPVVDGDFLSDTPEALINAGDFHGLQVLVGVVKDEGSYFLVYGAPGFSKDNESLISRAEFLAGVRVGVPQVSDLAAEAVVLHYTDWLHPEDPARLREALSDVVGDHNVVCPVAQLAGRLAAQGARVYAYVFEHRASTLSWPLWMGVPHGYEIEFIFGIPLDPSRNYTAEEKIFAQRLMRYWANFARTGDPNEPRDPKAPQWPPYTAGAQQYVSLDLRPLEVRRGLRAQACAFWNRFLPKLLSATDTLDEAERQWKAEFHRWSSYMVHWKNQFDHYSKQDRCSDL

With `CCN(CC)C(=O)c1cccc(C)c1` [DEET, N,N-diethyl-meta-toluamide], the “irritancy / skin reactions” value in data set [1] is recorded as “act as an irritant”. Also, the inhibition of acetylcholinesterase result in data set [2] is recorded as “inhibit acetylcholinesterase”.
As for `CCC(C)OC(=O)N1CCCCC1CCO` (stereo not shown) [Icaridin], the “effectiveness at repelling insects relative to DEET” value in data set [3] is reported as “as effective as DEET”. The “toxicity to salamander larvae” value in data set [4] is reported as “toxic to salamander larvae”.
